Measured values: PubChem BioAssay (NCI)
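Method: 48-hour compound exposure of cells in 96-well plates, five concentrations, linear interpolation of endpoints. The concentration for 50% growth inhibition is given as GI50. TGI denotes the concentration required for complete inhibition of growth.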

How the values were obtained:
Test in all cases: growth of human tumour cells (NCI), 48 h
786-0 renal = tested on: 786-0 renal
A498 renal = tested on: A498 renal
A549 NSCLC = tested on: A549 NSCLC
ACHN renal = tested on: ACHN renal
BT-549 breast = tested on: BT-549 breast
CAKI-1 renal = tested on: CAKI-1 renal
CCRF-CEM leukemia = tested on: CCRF-CEM leukemia
COLO 205 colon = tested on: COLO 205 colon
DU-145 prostate = tested on: DU-145 prostate
HCC-2998 colon = tested on: HCC-2998 colon
HCT-116 colon = tested on: HCT-116 colon
HCT-15 colon = tested on: HCT-15 colon
HL-60(TB) leukemia = tested on: HL-60(TB) leukemia
HOP-62 NSCLC = tested on: HOP-62 NSCLC
HOP-92 NSCLC = tested on: HOP-92 NSCLC
HS 578T breast = tested on: HS 578T breast
HT29 colon = tested on: HT29 colon
IGROV1 ovarian = tested on: IGROV1 ovarian
K-562 leukemia = tested on: K-562 leukemia
KM12 colon = tested on: KM12 colon
LOX IMVI melanoma = tested on: LOX IMVI melanoma
M14 melanoma = tested on: M14 melanoma
MALME-3M melanoma = tested on: MALME-3M melanoma
MCF7 breast = tested on: MCF7 breast
MDA-MB-231 breast = tested on: MDA-MB-231 breast
MDA-MB-435 = tested on: MDA-MB-435
MOLT-4 leukemia = tested on: MOLT-4 leukemia
NCI-H226 lung = tested on: NCI-H226 lung
NCI-H23 lung = tested on: NCI-H23 lung
NCI-H460 lung = tested on: NCI-H460 lung
NCI-H522 lung = tested on: NCI-H522 lung
NCI/ADR-RES ovarian = tested on: NCI/ADR-RES ovarian
OVCAR-3 ovarian = tested on: OVCAR-3 ovarian
OVCAR-4 ovarian = tested on: OVCAR-4 ovarian
OVCAR-5 ovarian = tested on: OVCAR-5 ovarian
OVCAR-8 ovarian = tested on: OVCAR-8 ovarian
PC-3 prostate = tested on: PC-3 prostate
RPMI-8226 leukemia = tested on: RPMI-8226 leukemia
RXF 393 renal = tested on: RXF 393 renal
SF-268 CNS = tested on: SF-268 CNS
SF-295 CNS = tested on: SF-295 CNS
SF-539 CNS = tested on: SF-539 CNS
SK-MEL-2 melanoma = tested on: SK-MEL-2 melanoma
SK-MEL-28 melanoma = tested on: SK-MEL-28 melanoma
SK-MEL-5 melanoma = tested on: SK-MEL-5 melanoma
SK-OV-3 ovarian = tested on: SK-OV-3 ovarian
SN12C renal = tested on: SN12C renal
SNB-19 CNS = tested on: SNB-19 CNS
SNB-75 CNS = tested on: SNB-75 CNS
SR leukemia = tested on: SR leukemia
SW-620 colon = tested on: SW-620 colon
T-47D breast = tested on: T-47D breast
TK-10 renal = tested on: TK-10 renal
U251 CNS = tested on: U251 CNS
UACC-257 melanoma = tested on: UACC-257 melanoma
UACC-62 melanoma = tested on: UACC-62 melanoma
UO-31 renal = tested on: UO-31 renal

Work on `Cc1ccc(C(=O)N2C/C(=C/c3ccccc3)C(=O)/C(=C/c3ccccc3)C2)cc1` yielded a GI50 (786-0 renal) of 3.52 µM, a TGI (786-0 renal) of 15.2 µM and a GI50 (A498 renal) greater than 65 µM. It also gave a TGI (A498 renal) greater than 100 µM, a GI50 (A549 NSCLC) of 63.3 µM and a TGI (A549 NSCLC) greater than 100 µM. It also gave a GI50 (ACHN renal) of 5.04 µM, a TGI (ACHN renal) greater than 67.1 µM and a GI50 (BT-549 breast) of 3.42 µM. The TGI (BT-549 breast) was 15.8 µM, the GI50 (CAKI-1 renal) was greater than 57.5 µM and the TGI (CAKI-1 renal) was greater than 100 µM. The GI50 (CCRF-CEM leukemia) was 2.23 µM, the TGI (CCRF-CEM leukemia) was greater than 100 µM and the GI50 (COLO 205 colon) was 8.7 µM. For the same molecule, the TGI (COLO 205 colon) was greater than 100 µM, the GI50 (DU-145 prostate) was 17.8 µM and the TGI (DU-145 prostate) was greater than 100 µM. It also gave a GI50 (HCC-2998 colon) of 3.08 µM, a TGI (HCC-2998 colon) of 8.67 µM and a GI50 (HCT-116 colon) of 0.226 µM. It also gave a TGI (HCT-116 colon) of 0.548 µM, a GI50 (HCT-15 colon) of 3.13 µM and a TGI (HCT-15 colon) greater than 100 µM. For the same molecule, the GI50 (HL-60(TB) leukemia) was 18.8 µM, the TGI (HL-60(TB) leukemia) was greater than 100 µM and the GI50 (HOP-62 NSCLC) was 4.96 µM. For the same molecule, the TGI (HOP-62 NSCLC) was 61.3 µM, the GI50 (HOP-92 NSCLC) was 10.7 µM and the TGI (HOP-92 NSCLC) was greater than 100 µM. For the same molecule, the GI50 (HS 578T breast) was 4.48 µM, the TGI (HS 578T breast) was 50.7 µM and the GI50 (HT29 colon) was 2.03 µM. It also gave a TGI (HT29 colon) of 7 µM, a GI50 (IGROV1 ovarian) of 12.8 µM and a TGI (IGROV1 ovarian) greater than 100 µM. It also gave a GI50 (K-562 leukemia) of 1.66 µM, a TGI (K-562 leukemia) greater than 100 µM and a GI50 (KM12 colon) of 1.43 µM. For the same molecule, the TGI (KM12 colon) was 6.94 µM, the GI50 (LOX IMVI melanoma) was 1.16 µM and the TGI (LOX IMVI melanoma) was 3.08 µM. For the same molecule, the GI50 (M14 melanoma) was 3.85 µM, the TGI (M14 melanoma) was greater than 92.1 µM and the GI50 (MALME-3M melanoma) was 30.6 µM. It also gave a TGI (MALME-3M melanoma) greater than 100 µM, a GI50 (MCF7 breast) of 0.387 µM and a TGI (MCF7 breast) greater than 41.9 µM. For the same molecule, the GI50 (MDA-MB-231 breast) was 4.61 µM, the TGI (MDA-MB-231 breast) was greater than 77.2 µM and the GI50 (MDA-MB-435) was 1.01 µM. The TGI (MDA-MB-435) was 6.41 µM, the GI50 (MOLT-4 leukemia) was 4.98 µM and the TGI (MOLT-4 leukemia) was greater than 100 µM. The TGI (NCI-H226 lung) was greater than 100 µM, the GI50 (NCI-H23 lung) was 8.86 µM and the TGI (NCI-H23 lung) was greater than 100 µM. For the same molecule, the GI50 (NCI-H460 lung) was 31 µM, the TGI (NCI-H460 lung) was greater than 100 µM and the GI50 (NCI-H522 lung) was 11.6 µM. It also gave a TGI (NCI-H522 lung) greater than 56 µM, a GI50 (NCI/ADR-RES ovarian) of 27.7 µM and a TGI (NCI/ADR-RES ovarian) greater than 100 µM. For the same molecule, the GI50 (OVCAR-3 ovarian) was 6.8 µM, the TGI (OVCAR-3 ovarian) was greater than 100 µM and the GI50 (OVCAR-4 ovarian) was 16.5 µM. It also gave a TGI (OVCAR-4 ovarian) greater than 100 µM, a GI50 (OVCAR-5 ovarian) greater than 75.5 µM and a TGI (OVCAR-5 ovarian) greater than 100 µM. It also gave a GI50 (OVCAR-8 ovarian) of 5.09 µM, a TGI (OVCAR-8 ovarian) greater than 100 µM and a GI50 (PC-3 prostate) of 6.08 µM. It also gave a TGI (PC-3 prostate) greater than 100 µM, a GI50 (RPMI-8226 leukemia) of 0.131 µM and a TGI (RPMI-8226 leukemia) of 0.971 µM. The GI50 (RXF 393 renal) was 2.2 µM, the TGI (RXF 393 renal) was 6.39 µM and the GI50 (SF-268 CNS) was 10.8 µM. The TGI (SF-268 CNS) was greater than 100 µM, the GI50 (SF-295 CNS) was 5.36 µM and the TGI (SF-295 CNS) was greater than 100 µM. The GI50 (SF-539 CNS) was 9.66 µM, the TGI (SF-539 CNS) was 72.2 µM and the GI50 (SK-MEL-2 melanoma) was greater than 62.8 µM. It also gave a TGI (SK-MEL-2 melanoma) greater than 100 µM, a GI50 (SK-MEL-28 melanoma) of 8.98 µM and a TGI (SK-MEL-28 melanoma) of 68.9 µM. It also gave a GI50 (SK-MEL-5 melanoma) of 3.3 µM, a TGI (SK-MEL-5 melanoma) greater than 31.6 µM and a GI50 (SK-OV-3 ovarian) of 8.64 µM. For the same molecule, the TGI (SK-OV-3 ovarian) was greater than 100 µM, the GI50 (SN12C renal) was 7.34 µM and the TGI (SN12C renal) was greater than 100 µM. For the same molecule, the GI50 (SNB-19 CNS) was 9.51 µM, the TGI (SNB-19 CNS) was greater than 100 µM and the GI50 (SNB-75 CNS) was 2.58 µM. For the same molecule, the TGI (SNB-75 CNS) was 16.4 µM, the GI50 (SR leukemia) was 0.461 µM and the TGI (SR leukemia) was 9.09 µM. It also gave a GI50 (SW-620 colon) of 2.94 µM, a TGI (SW-620 colon) greater than 59.3 µM and a GI50 (T-47D breast) of 15.6 µM. It also gave a TGI (T-47D breast) greater than 100 µM, a GI50 (TK-10 renal) of 20.8 µM and a TGI (TK-10 renal) of 90 µM. For the same molecule, the GI50 (U251 CNS) was 3.28 µM, the TGI (U251 CNS) was greater than 100 µM and the GI50 (UACC-257 melanoma) was 10.1 µM. For the same molecule, the TGI (UACC-257 melanoma) was greater than 100 µM, the GI50 (UACC-62 melanoma) was 4.49 µM and the TGI (UACC-62 melanoma) was 25.8 µM. The GI50 (UO-31 renal) was 10.2 µM and the TGI (UO-31 renal) was greater than 100 µM.
